The source of these data is ChEMBL document CHEMBL4823282, “Novel Broad-Spectrum Antimicrobial Peptide Derived from Anoplin and Its Activity on Bacterial Pneumonia in Mice” (J Med Chem, 2021).

pIC50: −log10 of the molar value. Active and inactive are the calls of the source. Where a SMILES comes first, the peptide text is derived from it. Bridges are numbered along the chain shown (N, C = ends). [ ]: non-standard residue; d: D form. The star is where a group is joined. X1 = CC[C@H](C)CCCCC(=O)*; Dab = NCC[C@H](N)C(=O)O

The test system of data set [1] is Cell membrane. Put plainly: Disruption of membrane integrity in Klebsiella pneumoniae ATCC 700603 assessed as membrane cracking at 1 times MIC incubated for 0.5 to 2 hrs by scanning electron microscopy. Type of data set: subcellular. The following applies: Klebsiella pneumoniae 700603, time 0.5-2 hrs.
Data set [2] concerns Klebsiella pneumoniae. The experiment in a line: Antibacterial activity against Klebsiella pneumoniae ATCC 700603 infected in BALB/C mouse assessed as reduction in alveolar shrinkage at 5 mg/kg, ip by hematoxylin and eosin staining based assay. Type of data set: functional, organism-based.
Data set [3] relates to Klebsiella pneumoniae. The experiment in a line: Antibacterial activity against Klebsiella pneumoniae ATCC 700603 infected in BALB/C mouse assessed as reduction in inflammatory cell infiltration in […] at 5 mg/kg, ip by hematoxylin and eosin staining based assay. The class given is functional, organism-based.
A short description of data set [4]: Toxicity in BALB/C mouse infected with Klebsiella pneumoniae ATCC 700603 assessed as hepatic hemorrhage at 5 mg/kg, ip by hematoxylin and eosin staining based assay. The following applies: in vivo. The class given is organism-based.
Data set [5] deals with Escherichia coli. The experiment in a line: Antibiofilm activity against Escherichia coli ATCC 25922 at 4 times MIC incubated for 24 hrs by crystal violet staining based assay. The class given is functional, organism-based.
In data set [6] the test system is Klebsiella pneumoniae. Put plainly: Antibacterial activity against Klebsiella pneumoniae ATCC 700603 infected in BALB/C mouse assessed as reduction in bacterial load at 5 mg/kg, ip by hematoxylin and eosin staining based assay. Type of data set: functional, organism-based.
Data set [7] has as its system Staphylococcus aureus. Put plainly: Antibacterial activity against Staphylococcus aureus ATCC 25923 incubated with 2000 ug/ml chymotrypsin for 6 hrs followed by bacterial addition and measured after 18 hrs by CLSI based broth dilution method. The class given is functional, organism-based. The following applies: dose 2000.0 µg/ml, time 23.0 hrs.
The test system of data set [8] is Escherichia coli. The experiment in a line: Antibiofilm activity against Escherichia coli ATCC 25922 incubated for 24 hrs by crystal violet staining assay. Type of data set: functional, organism-based.
Data set [9] is described as follows: Toxicity in BALB/C mouse assessed as effect on kidney at 19 mg/kg, ip administered as single dose by hematoxylin and eosin staining based assay. The conditions noted are these: in vivo. The class given is organism-based.
The nature of data set [10]: Toxicity in BALB/C mouse assessed as effect on lung at 19 mg/kg, ip administered as single dose by hematoxylin and eosin staining based assay. Type of data set: organism-based. The following applies: in vivo.
Data set [11] deals with Klebsiella pneumoniae. Put plainly: Antibacterial activity against Klebsiella pneumoniae ATCC 700603 incubated with 0.2 to 0.02 ug/ml trypsin for 6 hrs followed by bacterial addition and measured after 18 hrs by CLSI based broth dilution method. The class given is functional, organism-based. The conditions noted are these: dose 0.2-0.02 µg/ml, time 23.0 hrs. In general terms: Broth dilution looks for growth in wells or tubes with falling amounts of substance.

In data set [12] the test system is Staphylococcus aureus. Put plainly: Disruption of membrane integrity in Staphylococcus aureus ATCC 25923 assessed as membrane creeping at 1 times MIC incubated for 0.5 to 2 hrs by scanning electron microscopy. The following applies: time 0.5-2 hrs. The class given is functional, organism-based.
Data set [13] has as its system Klebsiella pneumoniae. The experiment in a line: Disruption of membrane integrity in Klebsiella pneumoniae ATCC 700603 assessed as content leakage at 1 times MIC incubated for 0.5 to 2 hrs by scanning electron microscopy. The following applies: time 0.5-2 hrs. The class given is functional, organism-based.
The test system of data set [14] is Klebsiella pneumoniae. The experiment in a line: Antibacterial activity against Klebsiella pneumoniae ATCC 700603 infected in BALB/C mouse assessed as alveolar expansion at 5 mg/kg, ip by hematoxylin and eosin staining based assay. The class given is functional, organism-based.
Data set [15] has as its system Escherichia coli. Put plainly: Synergistic antibacterial activity against Escherichia coli ATCC 25922 at 2 times MIC incubated for 18 to 24 hrs in presence of 2 times MIC of polymyxin B by broth microdilution assay based checkerboard assay. The class given is functional. The conditions noted are these: time 18-24 hrs.
Data set [16] has as its system Cell membrane. The experiment in a line: Induction of outer membrane permeabilization in Klebsiella pneumoniae ATCC 700603 measured within 1 mins by N-phenylnaphthylamine dye based fluorescent method. The class given is subcellular. The conditions noted are these: Klebsiella pneumoniae 700603.
Data set [17] in a line: Stability in BALB/C mouse serum measured up to 1440 mins by HPLC analysis. The class given is ADME, cell-free.
The subject of another data set is Pseudomonas aeruginosa. Put plainly: Antibacterial activity against Pseudomonas aeruginosa ATCC 27853 at sub-MIC level after 15 passages by broth microdilution assay. Type of data set: functional, organism-based.
In data set [18] the test system is Klebsiella pneumoniae. Put plainly: Disruption of membrane integrity in Klebsiella pneumoniae ATCC 700603 assessed as membrane blebbing at 1 times MIC incubated for 0.5 to 2 hrs by scanning electron microscopy. Type of data set: functional, organism-based. The conditions noted are these: time 0.5-2 hrs.
Data set [19] can be described thus: Induction of inflammation in BALB/C mouse at 82 mg/kg, ip administered as single dose by hematoxylin and eosin staining based assay. Type of data set: organism-based. The following applies: in vivo.
The nature of data set [20]: Toxicity in BALB/C mouse assessed as effect on heart at 19 mg/kg, ip administered as single dose by hematoxylin and eosin staining based assay. The class given is organism-based. The conditions noted are these: in vivo.
Data set [21] can be described thus: Induction of glomerulus hemorrhage in BALB/C mouse at 82 mg/kg, ip administered as single dose by hematoxylin and eosin staining based assay. The conditions noted are these: in vivo. Type of data set: organism-based.
Data set [22] is described as follows: Induction of nephrotoxicity in BALB/C mouse at 82 mg/kg, ip administered as single dose by hematoxylin and eosin staining based assay. The class given is organism-based. The conditions noted are these: in vivo.
A short description of data set [23]: Toxicity in BALB/C mouse assessed as effect on liver at 19 mg/kg, ip administered as single dose by hematoxylin and eosin staining based assay. Type of data set: organism-based. The conditions noted are these: in vivo.
Data set [24] relates to Escherichia coli. The experiment in a line: Synergistic antibacterial activity against Escherichia coli ATCC 25922 at 2 times MIC incubated for 18 to 24 hrs in presence of 2 times MIC of gentamycin by broth microdilution assay based checkerboard assay. The conditions noted are these: time 18-24 hrs. The class given is functional.
A further data set relates to A549. The experiment in a line: Cytotoxicity against human A549 cells incubated for 12 hrs by MTT assay. Type of data set: cell-based. The conditions noted are these: A549, 12 h.
In the next data set the test system is HK-2. Put plainly: Cytotoxicity against human HK2 cells incubated for 12 hrs by MTT assay. The class given is cell-based. The following applies: HK-2, 12 h. (In general: Formazan colour is commonly taken as a measure of viable cells.)
Data set [25] has as its system Staphylococcus aureus. The experiment in a line: Disruption of membrane integrity in Staphylococcus aureus ATCC 25923 assessed as content leakage at 1 times MIC incubated for 0.5 to 2 hrs by scanning electron microscopy. The class given is functional, organism-based. The conditions noted are these: time 0.5-2 hrs.
Data set [26] in a line: Toxicity in BALB/C mouse assessed as effect on spleen at 19 mg/kg, ip administered as single dose by hematoxylin and eosin staining based assay. Type of data set: organism-based. The conditions noted are these: in vivo.
Data set [27] in a line: Toxicity in BALB/C mouse assessed as mouse death at 15 to 25 mg/kg, ip measured after 24 hrs. The conditions noted are these: in vivo, dose 15-25 mg/kg. The class given is organism-based.
Data set [28] relates to Staphylococcus aureus. The experiment in a line: Antibacterial activity against Staphylococcus aureus ATCC 25923 incubated with 0.2 to 0.02 ug/ml chymotrypsin for 6 hrs followed by bacterial addition and measured after 18 hrs by CLSI based broth dilution method. Type of data set: functional, organism-based. The conditions noted are these: dose 0.2-0.02 µg/ml.
Data set [29] relates to Klebsiella pneumoniae. Put plainly: Antibiofilm activity against Klebsiella pneumoniae ATCC 700603 incubated for 24 hrs by crystal violet staining based assay. Type of data set: functional, organism-based.
Data set [30] relates to Klebsiella pneumoniae. The experiment in a line: Synergistic antibacterial activity against Klebsiella pneumoniae ATCC 700603 at 2 times MIC incubated for 18 to 24 hrs in presence of 2 times MIC of polymyxin B by broth microdilution assay based checkerboard assay. The class given is functional. The following applies: time 18-24 hrs.
Data set [31] is described as follows: Toxicity in BALB/C mouse assessed as induction of inflammatory reaction at 19 mg/kg, ip administered as single dose by hematoxylin and eosin staining based assay. The class given is organism-based. The following applies: in vivo.
In data set [32] the test system is Staphylococcus aureus. Put plainly: Antibacterial activity against Staphylococcus aureus ATCC 25923 incubated with 0.2 to 0.02 ug/ml trypsin for 6 hrs followed by bacterial addition and measured after 18 hrs by CLSI based broth dilution method. Type of data set: functional, organism-based. The following applies: dose 0.2-0.02 µg/ml, time 23.0 hrs.
Data set [33] is described as follows: Induction of renal interstitial cell hemorrhage in BALB/C mouse at 82 mg/kg, ip administered as single dose by hematoxylin and eosin staining based assay. Type of data set: organism-based. The following applies: in vivo.
Data set [34] deals with Klebsiella pneumoniae. The experiment in a line: Antibacterial activity against Klebsiella pneumoniae ATCC 700603 incubated with 0.2 to 0.02 ug/ml chymotrypsin for 6 hrs followed by bacterial addition and measured after 18 hrs by CLSI based broth dilution method. The class given is functional, organism-based. The conditions noted are these: dose 0.2-0.02 µg/ml, time 23.0 hrs.

`CC[C@H](C)CCCCC(=O)N[C@@H](CCN)C(=O)N[C@H](C(=O)N[C@@H](CCN)C(=O)N[C@H]1CCNC(=O)[C@H]([C@@H](C)O)NC(=O)[C@H](CCN)NC(=O)[C@H](CCN)NC(=O)[C@H](CC(C)C)NC(=O)[C@@H](Cc2ccccc2)NC(=O)[C@H](CCN)NC1=O)[C@@H](C)O` (X1-[Dab]T[Dab][Dab][Dab][dF]L[Dab][Dab]T; lactam 4-C): the outcome in the data set with Cell membrane [1], in the data set on Escherichia coli [5] and in the data set on Staphylococcus aureus [7] was Active. Besides, the outcome in the data set with Klebsiella pneumoniae [2], in the data set on Klebsiella pneumoniae [3] and with Klebsiella pneumoniae [6] was inactive. For the same compound, the Activity entry in data set [4] was “Toxic”.
With `NCCCC[C@H](NC(=O)[C@H](CCCCN)NC(=O)[C@H](Cc1c[nH]c2ccccc12)NC(=O)[C@H](CCCCN)NC(=O)[C@H](CCCCN)NC(=O)[C@H](Cc1c[nH]c2ccccc12)NC(=O)[C@H](Cc1c[nH]c2ccccc12)NC(=O)[C@@H](N)CCCCN)C(=O)N[C@@H](Cc1c[nH]c2ccccc12)C(=O)N[C@@H](Cc1c[nH]c2ccccc12)C(N)=O` (H-KWWKKWKKWW-NH2), the Activity result in the data set on Escherichia coli [8] was “Dose-Dependent Effect”; in data set [9], “Toxic”; in data set [10], “Toxic”; in the data set with Cell membrane [16], “Dose-Dependent Effect”; in data set [19], “Toxic”; in [20] it was “Toxic”. The Activity entry is “Toxic” in data set [21]; “Toxic” in [22]; “Toxic” in data set [23]; “Toxic” in data set [26]; “Toxic” in data set [27]; “Dose-Dependent Effect” in the data set with Klebsiella pneumoniae [29]. For the same compound, the Activity entry in [31] and in data set [33] was “Toxic” each time. The result with Klebsiella pneumoniae [11], in the data set with Staphylococcus aureus [12], in the data set with Klebsiella pneumoniae [13], with Klebsiella pneumoniae [14], in the data set on Pseudomonas aeruginosa and in the data set on Klebsiella pneumoniae [18] was Active. For the same compound, the outcome in the data set on Staphylococcus aureus [25], in the data set with Staphylococcus aureus [32] and in the data set on Klebsiella pneumoniae [34] was Active. For the same compound, the FIC came out at 0.3125 in the data set on Escherichia coli [15], 0.5625 in the data set with Escherichia coli [24] and 0.3125 with Klebsiella pneumoniae [30]. The half-life (as a rule, the time needed for the level to fall by half in the phase considered) in data set [17] was found to be 50.1 min. Besides, the figures for the negative logarithm of the IC50 (pIC50) in the data set with A549 and in the data set on HK-2 were 4.06 and 4.20, respectively. In addition, the result in the data set on Staphylococcus aureus [28] was inactive.
